Test results published in US20230192598A1, “NOVEL MODIFIED TETRACYCLINES FOR TREATMENT OF ALCOHOL USE DISORDER, PAIN AND OTHER DISORDERS INVOLVING POTENTIAL INFLAMMATORY PROCESSES” (Texas Tech University System, priority 2020, published 2023).
Entries after “also recorded” stand apart in the source; their conditions may differ.

Experiments:
E. coli cell culture = test: Antibacterial efficacy of CMM ether analogs (ZOI and CFU assays, Example 2); assay type: cell-based; details: for Anti-microbial action: Table 3
Excerpt: (§1) Purity and molecular formula verification of the CMM analogs were done using High Performance Liquid Chromatography (HPLC) Nuclear Magnetic Resonance spectroscopy (NMR) and Liquid Chromatography-Mass Spectrometry (LC-MS) after initial identification via Thin-layer Chromatography (TLC). Zone of inhibition (ZOI) and colony forming unit (CFU) assays were used to assess the antibacterial efficacy of our CMM analogs in E. coli cell culture. Drinking-in-the-Dark (DID) and Two-Bottle Choice (2BC) procedures were utilized in both female and male C57BL/6J mice to evaluate ethanol and water consumption. […] Butyl ether minocycline may be used for an AUD treatment.

C57BL/6J mice = test: Drinking in the Dark (DID) model of AUD, ethanol consumption; assay type: in vivo; details: for % DID: Table 3, ↓ = decrease of alcohol consumption; for reduction of ethanol consumption: by gavage, compared with i.p.
Excerpt: FIGS. 5A to 5C show, 5A) CMMs reduced acute ethanol consumption in the Drinking in the Dark model of AUD. MINO, DeDiAc, and TRI reduced ethanol consumption by over 50% by intraperitoneal injection (Left). […] 5B) Dose response curve for DeDIAc in female mice by gavage. 5C) Dose response curve for DeDIAc in male mice by gavage. MINO=minocycline, BeMAc=Butyl ether monoacetate minocycline, DeDiAc=De amino di acetyl minocycline, TRI=Tri acetyl minocycline. *p<0.05 compared to controls.
as §1

[1] = cited from earlier work
AUD traits = details: seven tetracyclines tested (Syapin et al. 2016); cited from earlier work
E. coli [2] = test: Colony forming unit assay, antibacterial; assay type: cell-based; details: 24 hour cell culture
Excerpt: (§2) MINO=minocycline, BeMAc=Butyl ether monoacetate minocycline, DeDiAc=De amino di acetyl minocycline, TRI=Tri acetyl minocycline.
as §1

E. coli [3] = test: Zone of inhibition assay; assay type: cell-based; details: 24 hour cell culture
Excerpt: as §2, §1

[4] = butyl ether minocycline 100 mg/kg, i.p.

| Compound | Anti-microbial action (E. coli cell culture) | % DID (C57BL/6J mice; [4]) [%] | LogD [1] | LogP [1] | reduction of ethanol consumption (C57BL/6J mice; Drinking in the Dark) | further results |
| --- | --- | --- | --- | --- | --- | --- |
| CCCCOc1ccc(N(C)C)c2c1C(=O)C1=C(O)C3(O)C(=O)C(C(N)=O)=C(O)C(N(C)C)C3CC1C2.Cl (stereo not drawn) [Butyl Ether Minocycline HCl, 10-Butoxy-4,7-bis-dimethylamino-3,12,12a-trihydroxy-1,11-dioxo-1,4,4a,5,5a,6,11,12a-octahydro-naphthacene-2-carboxylic acid amide hydrochloride] | ND 64 mg/ml | 85 | – | – | – | antibiotic / antimicrobial activity (in words) (E. coli cell culture; Example 2, compared to minocycline): lost antibiotic activity; alcohol consumption (in words) (C57BL/6J mice; Example 2, butyl ether minocycline 100 mg/kg, i.p., hydrochloride): significantly reduced alcohol consumption; also recorded: greatest reduction in alcohol consumption |
| CN(C)[C@@H]1C(O)=C(C(N)=O)C(=O)[C@@]2(O)C(O)=C3C(=O)c4c(O)ccc(Cl)c4[C@@H](O)[C@H]3C[C@@H]12 [Demeclocycline] | – | – | −3.40 | −1.07 | – | – |
| C[C@H]1c2cccc(O)c2C(=O)C2=C(O)[C@]3(O)C(=O)C(C(N)=O)=C(O)[C@@H](N(C)C)[C@@H]3[C@@H](O)[C@@H]21 [Doxycycline] | – | – | −3.29 | −0.54 | – | effectiveness against AUD traits (AUD traits): effective |
| CCOc1ccc(N(C)C)c2c1C(=O)C1=C(O)C3(O)C(=O)C(C(N)=O)=C(O)C(N(C)C)C3CC1C2.Cl (stereo not drawn) [Ethyl Ether Minocycline HCl, 4,7-Bis-dimethylamino-10-ethoxy-3,12,12a-trihydroxy-1,11-dioxo-1,4,4a,5,5a,6,11,12a-octahydro-naphthacene-2-carboxylic acid amide hydrochloride] | >2 mg/mL | 50 | – | – | – | – |
| COc1ccc(N(C)C)c2c1C(=O)C1=C(O)C3(O)C(=O)C(C(N)=O)=C(O)C(N(C)C)C3CC1C2.Cl (stereo not drawn) [Methyl Ether Minocycline HCl, 4,7-Bis-dimethylamino-3,12,12a-trihydroxy-10-methoxy-1,11-dioxo-1,4,4a,5,5a,6,11,12a-octahydro-naphthacene-2-carboxylic acid amide hydrochloride] | >16 mg/mL | 40 | – | – | – | – |
| CN(C)c1ccc(O)c2c1CC1CC3C(N(C)C)C(O)=C(C(N)=O)C(=O)C3(O)C(O)=C1C2=O.Cl (stereo not drawn) [Minocycline HCl, 4,7-Bis-dimethylamino-3,10,12,12a-tetrahydroxy-1,11-dioxo-1,4,4a,5,5a,6,11,12a-octahydro-naphthacene-2-carboxylic acid amide hydrochloride, reference compound] | >0.125 mg/mL | 75 | – | – | – | – |
| CN(C)c1ccc(O)c2c1C[C@H]1C[C@H]3[C@H](N(C)C)C(=O)C(C(N)=O)=C(O)[C@@]3(O)C(=O)C1=C2O [Minocycline, reference compound] | – | – | – | – | reduced ethanol consumption to a lesser degree | effectiveness against AUD traits (AUD traits): effective |
| CN(C)[C@@H]1C(O)=C(C(N)=O)C(=O)[C@@]2(O)C(O)=C3C(=O)c4c(O)cccc4[C@@](C)(O)[C@H]3[C@H](O)[C@@H]12 [Oxytetracycline] | – | – | −4.25 | −1.5 | – | – |
| CCCOc1ccc(N(C)C)c2c1C(=O)C1=C(O)C3(O)C(=O)C(C(N)=O)=C(O)C(N(C)C)C3CC1C2.Cl (stereo not drawn) [Propyl Ether Minocycline HCl, 4,7-Bis-dimethylamino-3,12,12a-trihydroxy-1,11-dioxo-10-propoxy-1,4,4a,5,5a,6,11,12a-octahydro-naphthacene-2-carboxylic acid amide hydrochloride] | >4 mg/mL | 50 | – | – | – | – |
| CN(C)c1cc(NC(=O)CNC(C)(C)C)c(O)c2c1C[C@H]1C[C@H]3[C@H](N(C)C)C(O)=C(C(N)=O)C(=O)[C@@]3(O)C(O)=C1C2=O [Tigecycline] | – | – | −2.73 | −1.30 | – | effectiveness against AUD traits (AUD traits): effective |
| Butyl ether monoacetate minocycline [BeMAc] | – | – | – | – | reduced ethanol consumption to a lesser degree | – |
| De amino di acetyl minocycline [DeDiAc] | – | – | – | – | reduced ethanol consumption to a lesser degree | antibacterial action, colony forming units (E. coli [2]): loss of antibiotic activity; antibacterial action, zone of inhibition (E. coli [3]): loss of antibiotic activity; ethanol consumption (in words) (C57BL/6J mice; Example 1, Drinking in the Dark, intraperitoneal and oral administration): significantly reduced ethanol consumption |
| Tri acetyl minocycline | – | – | – | – | reduced ethanol consumption to a lesser degree | – |
